# Experimental data taken from PMC9267968, “Continued Structural Exploration of Sulfocoumarin as Selective Inhibitor of Tumor-Associated Human Carbonic Anhydrases IX and XII” (Molecules, 2022).
# Test system: not given
# Assay: not given
# Details: not given
row,melting point [°C],SMILES
1,181 to 182,"O=S1(=O)Oc2cc(O)ccc2-c2ccccc21 [Compound 26, 3-Hydroxydibenzo[c,e][1,2]oxathiine 6,6-dioxide]"
2,232 to 235,"O=S1(=O)Oc2cc(OCc3ccccc3)ccc2-c2ccccc21 [Compound 27, 3-(benzyloxy)dibenzo[c,e][1,2]oxathiine 6,6-dioxide]"
3,268 to 269,"O=S1(=O)Oc2cc(OCc3ccc(F)cc3)ccc2-c2ccccc21 [Compound 28, 3-((4-fluorobenzyl)oxy)dibenzo[c,e][1,2]oxathiine 6,6-dioxide]"
4,249 to 252,"O=S1(=O)Oc2cc(OCc3cccc(F)c3)ccc2-c2ccccc21 [Compound 29, 3-((3-fluorobenzyl)oxy)dibenzo[c,e][1,2]oxathiine 6,6-dioxide]"
5,264 to 266,"O=[N+]([O-])c1ccc(COc2ccc3c(c2)OS(=O)(=O)c2ccccc2-3)cc1 [Compound 30, 3-((4-nitrobenzyl)oxy)dibenzo[c,e][1,2]oxathiine 6,6-dioxide]"
6,248 to 251,"O=[N+]([O-])c1cccc(COc2ccc3c(c2)OS(=O)(=O)c2ccccc2-3)c1 [Compound 31, 3-((3-nitrobenzyl)oxy)dibenzo[c,e][1,2]oxathiine 6,6-dioxide]"
7,111 to 113,"CCOC(=O)C1=Cc2ccccc2OS1(=O)=O [Compound 34, ethyl benzo[e][1,2]oxathiine-3-carboxylate 2,2-dioxide]"
8,167 to 169,"CCOC(=O)C1=Cc2ccc(OC)cc2OS1(=O)=O [Compound 35, ethyl 7-methoxybenzo[e][1,2]oxathiine-3-carboxylate 2,2-dioxide]"
9,105 to 107,"O=C(O)C1=Cc2ccccc2OS1(=O)=O [Compound 36, benzo[e][1,2]oxathiine-3-carboxylic acid 2,2-dioxide]"
10,150 to 151,"COc1ccc2c(c1)OS(=O)(=O)C(C(=O)O)=C2 [Compound 37, 7-methoxybenzo[e][1,2]oxathiine-3-carboxylic acid 2,2-dioxide]"
11,192 to 195,"O=C(Nc1ccccc1)C1=Cc2ccccc2OS1(=O)=O [Compound 38, N-phenylbenzo[e][1,2]oxathiine-3-carboxamide 2,2-dioxide]"
12,249 to 252,"O=C(Nc1ccc(Br)cc1)C1=Cc2ccccc2OS1(=O)=O [Compound 39, N-(4-bromophenyl)benzo[e][1,2]oxathiine-3-carboxamide 2,2-dioxide]"
13,228 to 229,"O=C(Nc1cccc(Br)c1)C1=Cc2ccccc2OS1(=O)=O [Compound 40, N-(3-bromophenyl)benzo[e][1,2]oxathiine-3-carboxamide 2,2-dioxide]"
14,231 to 233,"COc1ccc(NC(=O)C2=Cc3ccccc3OS2(=O)=O)cc1 [Compound 41, N-(4-methoxyphenyl)benzo[e][1,2]oxathiine-3-carboxamide 2,2-dioxide]"
15,219 to 221,"COc1cccc(NC(=O)C2=Cc3ccccc3OS2(=O)=O)c1 [Compound 42, N-(3-methoxyphenyl)benzo[e][1,2]oxathiine-3-carboxamide 2,2-dioxide]"

# Target: T1, hCA IX (Homo sapiens, UniProt Q16790)
# T1 construct: made in house
# Assay: stopped-flow CO2 hydrase assay, hCA IX inhibition
# Assay type: biochemical
# Details: 6 h incubation of enzyme and inhibitor; mean from 3 different assays, errors 5-10%; read-out: KI (nM) CA IX
# Method: (§1) For this reason, we herein report a 6 h incubation time instead.
# (§2) An Applied Photophysics stopped-flow instrument was used for assaying the CA catalyzed CO2 hydration activity. […] The uncatalyzed rates were determined in the same manner and subtracted from the total observed rates. Stock solutions of inhibitor (0.1 mM) were prepared in distilled–deionized water and dilutions up to 0.01 nM were done thereafter with the assay buffer. Inhibitor and enzyme solutions were preincubated together for 6h at room temperature prior to assay, in order to allow for the formation of the E-I complex. The inhibition constants were obtained by non-linear least-squares methods using PRISM 3 and the Cheng–Prusoff equation and represent the mean from at least three different determinations. […] All CA isoforms were recombinant ones obtained in-house.
row,Ki [nM],SMILES
1,559,"O=S1(=O)Oc2cc(O)ccc2-c2ccccc21 [Compound 26, 3-Hydroxydibenzo[c,e][1,2]oxathiine 6,6-dioxide]"
2,681,"O=S1(=O)Oc2cc(OCc3ccccc3)ccc2-c2ccccc21 [Compound 27, 3-(benzyloxy)dibenzo[c,e][1,2]oxathiine 6,6-dioxide]"
3,755,"O=S1(=O)Oc2cc(OCc3ccc(F)cc3)ccc2-c2ccccc21 [Compound 28, 3-((4-fluorobenzyl)oxy)dibenzo[c,e][1,2]oxathiine 6,6-dioxide]"
4,615,"O=S1(=O)Oc2cc(OCc3cccc(F)c3)ccc2-c2ccccc21 [Compound 29, 3-((3-fluorobenzyl)oxy)dibenzo[c,e][1,2]oxathiine 6,6-dioxide]"
5,965,"O=[N+]([O-])c1ccc(COc2ccc3c(c2)OS(=O)(=O)c2ccccc2-3)cc1 [Compound 30, 3-((4-nitrobenzyl)oxy)dibenzo[c,e][1,2]oxathiine 6,6-dioxide]"
6,898,"O=[N+]([O-])c1cccc(COc2ccc3c(c2)OS(=O)(=O)c2ccccc2-3)c1 [Compound 31, 3-((3-nitrobenzyl)oxy)dibenzo[c,e][1,2]oxathiine 6,6-dioxide]"
7,1630,"CCOC(=O)C1=Cc2ccccc2OS1(=O)=O [Compound 34, ethyl benzo[e][1,2]oxathiine-3-carboxylate 2,2-dioxide]"
8,1080,"CCOC(=O)C1=Cc2ccc(OC)cc2OS1(=O)=O [Compound 35, ethyl 7-methoxybenzo[e][1,2]oxathiine-3-carboxylate 2,2-dioxide]"
9,500,"O=C(O)C1=Cc2ccccc2OS1(=O)=O [Compound 36, benzo[e][1,2]oxathiine-3-carboxylic acid 2,2-dioxide]"
10,854,"COc1ccc2c(c1)OS(=O)(=O)C(C(=O)O)=C2 [Compound 37, 7-methoxybenzo[e][1,2]oxathiine-3-carboxylic acid 2,2-dioxide]"
11,3290,"O=C(Nc1ccccc1)C1=Cc2ccccc2OS1(=O)=O [Compound 38, N-phenylbenzo[e][1,2]oxathiine-3-carboxamide 2,2-dioxide]"
12,34300,"O=C(Nc1ccc(Br)cc1)C1=Cc2ccccc2OS1(=O)=O [Compound 39, N-(4-bromophenyl)benzo[e][1,2]oxathiine-3-carboxamide 2,2-dioxide]"
13,40800,"O=C(Nc1cccc(Br)c1)C1=Cc2ccccc2OS1(=O)=O [Compound 40, N-(3-bromophenyl)benzo[e][1,2]oxathiine-3-carboxamide 2,2-dioxide]"
14,8230,"COc1ccc(NC(=O)C2=Cc3ccccc3OS2(=O)=O)cc1 [Compound 41, N-(4-methoxyphenyl)benzo[e][1,2]oxathiine-3-carboxamide 2,2-dioxide]"
15,5420,"COc1cccc(NC(=O)C2=Cc3ccccc3OS2(=O)=O)c1 [Compound 42, N-(3-methoxyphenyl)benzo[e][1,2]oxathiine-3-carboxamide 2,2-dioxide]"

# Target: T2, hCA II (Homo sapiens, UniProt P00918)
# T2 construct: made in house
# Assay: stopped-flow CO2 hydrase assay, hCA II inhibition
# Assay type: biochemical
# Details: 6 h incubation of enzyme and inhibitor; mean from 3 different assays, errors 5-10%; read-out: KI (nM) CA II
# Method: as §1, §2
row,Ki [nM],SMILES
1,9000,"O=S1(=O)Oc2cc(O)ccc2-c2ccccc21 [Compound 26, 3-Hydroxydibenzo[c,e][1,2]oxathiine 6,6-dioxide]"
2,> 100000,"O=S1(=O)Oc2cc(OCc3ccccc3)ccc2-c2ccccc21 [Compound 27, 3-(benzyloxy)dibenzo[c,e][1,2]oxathiine 6,6-dioxide]"
3,> 100000,"O=S1(=O)Oc2cc(OCc3ccc(F)cc3)ccc2-c2ccccc21 [Compound 28, 3-((4-fluorobenzyl)oxy)dibenzo[c,e][1,2]oxathiine 6,6-dioxide]"
4,> 100000,"O=S1(=O)Oc2cc(OCc3cccc(F)c3)ccc2-c2ccccc21 [Compound 29, 3-((3-fluorobenzyl)oxy)dibenzo[c,e][1,2]oxathiine 6,6-dioxide]"
5,> 100000,"O=[N+]([O-])c1ccc(COc2ccc3c(c2)OS(=O)(=O)c2ccccc2-3)cc1 [Compound 30, 3-((4-nitrobenzyl)oxy)dibenzo[c,e][1,2]oxathiine 6,6-dioxide]"
6,> 100000,"O=[N+]([O-])c1cccc(COc2ccc3c(c2)OS(=O)(=O)c2ccccc2-3)c1 [Compound 31, 3-((3-nitrobenzyl)oxy)dibenzo[c,e][1,2]oxathiine 6,6-dioxide]"
7,> 100000,"CCOC(=O)C1=Cc2ccccc2OS1(=O)=O [Compound 34, ethyl benzo[e][1,2]oxathiine-3-carboxylate 2,2-dioxide]"
8,> 100000,"CCOC(=O)C1=Cc2ccc(OC)cc2OS1(=O)=O [Compound 35, ethyl 7-methoxybenzo[e][1,2]oxathiine-3-carboxylate 2,2-dioxide]"
9,996,"O=C(O)C1=Cc2ccccc2OS1(=O)=O [Compound 36, benzo[e][1,2]oxathiine-3-carboxylic acid 2,2-dioxide]"
10,728,"COc1ccc2c(c1)OS(=O)(=O)C(C(=O)O)=C2 [Compound 37, 7-methoxybenzo[e][1,2]oxathiine-3-carboxylic acid 2,2-dioxide]"
11,> 100000,"O=C(Nc1ccccc1)C1=Cc2ccccc2OS1(=O)=O [Compound 38, N-phenylbenzo[e][1,2]oxathiine-3-carboxamide 2,2-dioxide]"
12,> 100000,"O=C(Nc1ccc(Br)cc1)C1=Cc2ccccc2OS1(=O)=O [Compound 39, N-(4-bromophenyl)benzo[e][1,2]oxathiine-3-carboxamide 2,2-dioxide]"
13,> 100000,"O=C(Nc1cccc(Br)c1)C1=Cc2ccccc2OS1(=O)=O [Compound 40, N-(3-bromophenyl)benzo[e][1,2]oxathiine-3-carboxamide 2,2-dioxide]"
14,> 100000,"COc1ccc(NC(=O)C2=Cc3ccccc3OS2(=O)=O)cc1 [Compound 41, N-(4-methoxyphenyl)benzo[e][1,2]oxathiine-3-carboxamide 2,2-dioxide]"
15,> 100000,"COc1cccc(NC(=O)C2=Cc3ccccc3OS2(=O)=O)c1 [Compound 42, N-(3-methoxyphenyl)benzo[e][1,2]oxathiine-3-carboxamide 2,2-dioxide]"

# Target: T3, hCA I (Homo sapiens, UniProt P00915)
# T3 construct: made in house
# T3 sequence (P00915 whole entry): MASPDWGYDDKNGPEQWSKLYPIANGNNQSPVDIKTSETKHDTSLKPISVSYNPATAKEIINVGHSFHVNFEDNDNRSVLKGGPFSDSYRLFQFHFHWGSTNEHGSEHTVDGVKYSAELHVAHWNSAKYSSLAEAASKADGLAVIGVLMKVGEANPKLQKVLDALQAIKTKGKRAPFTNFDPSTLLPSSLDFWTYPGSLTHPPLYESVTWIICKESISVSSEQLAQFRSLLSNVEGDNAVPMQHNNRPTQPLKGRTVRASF
# Assay: stopped-flow CO2 hydrase assay, hCA I inhibition
# Assay type: biochemical
# Details: 6 h incubation of enzyme and inhibitor; mean from 3 different assays, errors 5-10%; read-out: KI (nM) CA I
# Method: as §1, §2
row,Ki [nM],SMILES
1,42600,"O=S1(=O)Oc2cc(O)ccc2-c2ccccc21 [Compound 26, 3-Hydroxydibenzo[c,e][1,2]oxathiine 6,6-dioxide]"
2,> 100000,"O=S1(=O)Oc2cc(OCc3ccccc3)ccc2-c2ccccc21 [Compound 27, 3-(benzyloxy)dibenzo[c,e][1,2]oxathiine 6,6-dioxide]"
3,> 100000,"O=S1(=O)Oc2cc(OCc3ccc(F)cc3)ccc2-c2ccccc21 [Compound 28, 3-((4-fluorobenzyl)oxy)dibenzo[c,e][1,2]oxathiine 6,6-dioxide]"
4,> 100000,"O=S1(=O)Oc2cc(OCc3cccc(F)c3)ccc2-c2ccccc21 [Compound 29, 3-((3-fluorobenzyl)oxy)dibenzo[c,e][1,2]oxathiine 6,6-dioxide]"
5,> 100000,"O=[N+]([O-])c1ccc(COc2ccc3c(c2)OS(=O)(=O)c2ccccc2-3)cc1 [Compound 30, 3-((4-nitrobenzyl)oxy)dibenzo[c,e][1,2]oxathiine 6,6-dioxide]"
6,> 100000,"O=[N+]([O-])c1cccc(COc2ccc3c(c2)OS(=O)(=O)c2ccccc2-3)c1 [Compound 31, 3-((3-nitrobenzyl)oxy)dibenzo[c,e][1,2]oxathiine 6,6-dioxide]"
7,> 100000,"CCOC(=O)C1=Cc2ccccc2OS1(=O)=O [Compound 34, ethyl benzo[e][1,2]oxathiine-3-carboxylate 2,2-dioxide]"
8,> 100000,"CCOC(=O)C1=Cc2ccc(OC)cc2OS1(=O)=O [Compound 35, ethyl 7-methoxybenzo[e][1,2]oxathiine-3-carboxylate 2,2-dioxide]"
9,4620,"O=C(O)C1=Cc2ccccc2OS1(=O)=O [Compound 36, benzo[e][1,2]oxathiine-3-carboxylic acid 2,2-dioxide]"
10,7140,"COc1ccc2c(c1)OS(=O)(=O)C(C(=O)O)=C2 [Compound 37, 7-methoxybenzo[e][1,2]oxathiine-3-carboxylic acid 2,2-dioxide]"
11,> 100000,"O=C(Nc1ccccc1)C1=Cc2ccccc2OS1(=O)=O [Compound 38, N-phenylbenzo[e][1,2]oxathiine-3-carboxamide 2,2-dioxide]"
12,> 100000,"O=C(Nc1ccc(Br)cc1)C1=Cc2ccccc2OS1(=O)=O [Compound 39, N-(4-bromophenyl)benzo[e][1,2]oxathiine-3-carboxamide 2,2-dioxide]"
13,> 100000,"O=C(Nc1cccc(Br)c1)C1=Cc2ccccc2OS1(=O)=O [Compound 40, N-(3-bromophenyl)benzo[e][1,2]oxathiine-3-carboxamide 2,2-dioxide]"
14,> 100000,"COc1ccc(NC(=O)C2=Cc3ccccc3OS2(=O)=O)cc1 [Compound 41, N-(4-methoxyphenyl)benzo[e][1,2]oxathiine-3-carboxamide 2,2-dioxide]"
15,> 100000,"COc1cccc(NC(=O)C2=Cc3ccccc3OS2(=O)=O)c1 [Compound 42, N-(3-methoxyphenyl)benzo[e][1,2]oxathiine-3-carboxamide 2,2-dioxide]"

# Target: T4, hCA XII (Homo sapiens, UniProt O43570)
# T4 construct: made in house
# T4 sequence (O43570 25-354): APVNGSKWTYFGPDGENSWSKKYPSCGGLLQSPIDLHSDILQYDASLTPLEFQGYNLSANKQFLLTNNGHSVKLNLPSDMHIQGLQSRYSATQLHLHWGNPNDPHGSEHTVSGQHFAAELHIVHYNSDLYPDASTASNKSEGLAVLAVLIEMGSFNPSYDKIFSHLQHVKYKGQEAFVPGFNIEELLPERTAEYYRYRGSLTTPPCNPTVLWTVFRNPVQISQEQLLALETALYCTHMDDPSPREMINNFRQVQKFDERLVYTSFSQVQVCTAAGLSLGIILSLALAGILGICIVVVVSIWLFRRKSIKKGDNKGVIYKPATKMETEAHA
# Assay: biochemical
# Details: not given
# Method: as §1, §2
row,Ki [nM],SMILES
1,2590,"CCOC(=O)C1=Cc2ccccc2OS1(=O)=O [Compound 34, ethyl benzo[e][1,2]oxathiine-3-carboxylate 2,2-dioxide]"
2,1530,"CCOC(=O)C1=Cc2ccc(OC)cc2OS1(=O)=O [Compound 35, ethyl 7-methoxybenzo[e][1,2]oxathiine-3-carboxylate 2,2-dioxide]"
3,564,"O=C(O)C1=Cc2ccccc2OS1(=O)=O [Compound 36, benzo[e][1,2]oxathiine-3-carboxylic acid 2,2-dioxide]"
4,408,"COc1ccc2c(c1)OS(=O)(=O)C(C(=O)O)=C2 [Compound 37, 7-methoxybenzo[e][1,2]oxathiine-3-carboxylic acid 2,2-dioxide]"
5,2300,"O=C(Nc1ccccc1)C1=Cc2ccccc2OS1(=O)=O [Compound 38, N-phenylbenzo[e][1,2]oxathiine-3-carboxamide 2,2-dioxide]"
6,59000,"O=C(Nc1ccc(Br)cc1)C1=Cc2ccccc2OS1(=O)=O [Compound 39, N-(4-bromophenyl)benzo[e][1,2]oxathiine-3-carboxamide 2,2-dioxide]"
7,78300,"O=C(Nc1cccc(Br)c1)C1=Cc2ccccc2OS1(=O)=O [Compound 40, N-(3-bromophenyl)benzo[e][1,2]oxathiine-3-carboxamide 2,2-dioxide]"
8,8550,"COc1ccc(NC(=O)C2=Cc3ccccc3OS2(=O)=O)cc1 [Compound 41, N-(4-methoxyphenyl)benzo[e][1,2]oxathiine-3-carboxamide 2,2-dioxide]"
9,3380,"COc1cccc(NC(=O)C2=Cc3ccccc3OS2(=O)=O)c1 [Compound 42, N-(3-methoxyphenyl)benzo[e][1,2]oxathiine-3-carboxamide 2,2-dioxide]"

# Same assay, conditions: 6 h incubation of enzyme and inhibitor; mean from 3 different assays, errors 5-10%; read-out: KI (nM) CA XII
row,Ki [nM],SMILES
1,414,"O=S1(=O)Oc2cc(O)ccc2-c2ccccc21 [Compound 26, 3-Hydroxydibenzo[c,e][1,2]oxathiine 6,6-dioxide]"
2,911,"O=S1(=O)Oc2cc(OCc3ccccc3)ccc2-c2ccccc21 [Compound 27, 3-(benzyloxy)dibenzo[c,e][1,2]oxathiine 6,6-dioxide]"
3,654,"O=S1(=O)Oc2cc(OCc3ccc(F)cc3)ccc2-c2ccccc21 [Compound 28, 3-((4-fluorobenzyl)oxy)dibenzo[c,e][1,2]oxathiine 6,6-dioxide]"
4,566,"O=S1(=O)Oc2cc(OCc3cccc(F)c3)ccc2-c2ccccc21 [Compound 29, 3-((3-fluorobenzyl)oxy)dibenzo[c,e][1,2]oxathiine 6,6-dioxide]"
5,1060,"O=[N+]([O-])c1ccc(COc2ccc3c(c2)OS(=O)(=O)c2ccccc2-3)cc1 [Compound 30, 3-((4-nitrobenzyl)oxy)dibenzo[c,e][1,2]oxathiine 6,6-dioxide]"
6,1370,"O=[N+]([O-])c1cccc(COc2ccc3c(c2)OS(=O)(=O)c2ccccc2-3)c1 [Compound 31, 3-((3-nitrobenzyl)oxy)dibenzo[c,e][1,2]oxathiine 6,6-dioxide]"
